Literature values, collected in US9814782B2, “Modified antibody in which motif comprising cysteine residue is bound, modified antibody-drug conjugate comprising the modified antibody, and production method for same” (Alteogen Inc., priority 2012, dated 2017).
pIC50: −log10 of the molar value.

Settings: known value; read-out: IC50 value in a cell proliferation inhibition assay

Auristatin
pIC50: 9.52 to 9.70
